Counter-ions that a name gives are not always drawn.
target: recombinant Human Phosphodiesterase B2 (PDE4B2) (Homo sapiens, UniProt Q07343); assay: Human Phosphodiesterase B2 Radiometric Assay (yttrium silicate SPA beads, [3H]cyclic AMP); assay type: biochemical; conditions: recombinant human PDE4B2, radiometric SPA assay, 8 nM [3H]cyclic AMP; read-out: PDE4B2 pIC50 (converted)
Summary of the method: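 Compounds were preincubated 30 min at 30 °C with 0.1 mg/mL PDE4B2 in 50 mM HEPES pH 7.5, 8.3 mM MgCl2, 1.7 mM EGTA, 0.01% Brij 35. Then 8 nM [3H]cAMP was added for 20 min, stopped with yttrium silicate SPA beads plus 18 mM ZnSO4 capturing product 5′AMP; pIC50 by curve fitting.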

Chain of recombinant Human Phosphodiesterase B2 (PDE4B2) (Q07343 1-564 isoform Q07343-2): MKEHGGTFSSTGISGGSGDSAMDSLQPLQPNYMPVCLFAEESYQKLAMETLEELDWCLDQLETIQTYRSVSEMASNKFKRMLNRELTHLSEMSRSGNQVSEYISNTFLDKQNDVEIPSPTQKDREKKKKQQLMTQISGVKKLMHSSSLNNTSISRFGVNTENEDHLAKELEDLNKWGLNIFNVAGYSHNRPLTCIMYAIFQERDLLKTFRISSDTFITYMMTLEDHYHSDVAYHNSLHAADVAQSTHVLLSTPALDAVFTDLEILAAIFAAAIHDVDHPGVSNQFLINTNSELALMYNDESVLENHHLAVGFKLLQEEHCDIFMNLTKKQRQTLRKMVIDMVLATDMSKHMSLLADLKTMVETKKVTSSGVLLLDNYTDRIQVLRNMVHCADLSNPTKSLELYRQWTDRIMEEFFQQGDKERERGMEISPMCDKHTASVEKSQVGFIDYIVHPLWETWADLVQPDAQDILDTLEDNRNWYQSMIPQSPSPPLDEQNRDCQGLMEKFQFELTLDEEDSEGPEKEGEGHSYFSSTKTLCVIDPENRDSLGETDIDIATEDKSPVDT

IC50 | Compound
0.0158 nM | CSc1ncc(-c2cccc(-n3c(=O)n([C@H]4CC[C@@H](NC(=O)c5cn6cc(F)ccc6n5)CC4)c(=O)c4cc(F)cnc43)c2)cn1 [Example 30, 6-fluoro-N-{cis-4-[6-fluoro-1-{3-[2-(methylthio)pyrimidin-5-yl]phenyl}-2,4-dioxo-1,4-dihydropyrido[2,3-d]pyrimidin-3(2H)-yl]cyclohexyl}imidazo[1,2-a]pyridine-2-carboxamide.]
0.0316 nM | CC(C)NCCOc1ccc(-c2cccc(-n3c(=O)n([C@H]4CC[C@@H](NC(=O)c5cn6cc(F)ccc6n5)CC4)c(=O)c4cc(F)cnc43)c2)cc1 [Example 342]
0.01 nM | O=C(N[C@H]1CC[C@@H](n2c(=O)c3cc(F)cnc3n(-c3cccc(-c4ccc(CN5CCN(C6CCCC6)CC5)cc4)c3)c2=O)CC1)c1cn2c(n1)CCCC2 [Example 221, N-{cis-4-[1-{4′-[(4-cyclopentylpiperazin-1-yl)methyl]biphenyl-3-yl}-6-fluoro-2,4-dioxo-1,4-dihydropyrido[2,3-d]pyrimidin-3(2H)-yl]cyclohexyl}-5,6,7,8-tetrahydroimidazo[1,2-a]pyridine-2-carboxamide]
0.126 nM | Cc1n[nH]cc1C(=O)N[C@H]1CC[C@@H](n2c(=O)c3cc(F)cnc3n(-c3cccc(-c4ccc(CN5CCN(C(C)C)CC5)cc4)c3)c2=O)CC1 [Example 235, N-{cis-4-[6-fluoro-1-{4′-[(4-isopropylpiperazin-1-yl)methyl]biphenyl-3-yl}-2,4-dioxo-1,4-di-hydropyrido[2,3-d]pyrimidin-3(2H)-yl]cyclohexyl}-3-methyl-1H-pyrazole-4-carboxamide]
0.1 nM | CN(CCc1ccc(-c2cccc(-n3c(=O)n([C@H]4CC[C@@H](NC(=O)c5cn6cc(F)ccc6n5)CC4)c(=O)c4cc(F)cnc43)c2)cc1)C(C)(C)C [Example 101, N-{cis-4-[1-(4′-{2-[tert-butyl(methyl)amino]ethyl}biphenyl-3-yl)-6-fluoro-2,4-dioxo-1,4-dihydropyrido[2,3-d]pyrimidin-3(2H)-yl]cyclohexyl}-6-fluoroimidazo[1,2-a]pyridine-2-carboxamide]
0.02 nM | CNC1CCN(Cc2ccc(-c3cccc(-n4c(=O)n([C@H]5CC[C@@H](NC(=O)c6cn7cc(F)ccc7n6)CC5)c(=O)c5cc(F)cnc54)c3)cc2)CC1 [Example 61, 6-fluoro-N-{cis-4-[6-fluoro-1-(4′-{[4-(methylamino)piperidin-1-yl]methyl}biphenyl-3-yl)-2,4-dioxo-1,4-dihydropyrido[2,3-d]pyrimidin-3(2H)-yl]cyclohexyl}imidazo[1,2-a]pyridine-2-carboxamide]
0.0794 nM | CN1CCN(Cc2cc(O)ccc2-c2cccc(-n3c(=O)n([C@H]4CC[C@@H](NC(=O)c5cn6cc(F)ccc6n5)CC4)c(=O)c4cc(F)cnc43)c2)CC1 [Example 71, 6-fluoro-N-{cis-4-[6-fluoro-1-{4′-hydroxy-2′-[(4-methylpiperazin-1-yl)methyl]biphenyl-3-yl}-2,4-dioxo-1,4-dihydropyrido[2,3-d]pyrimidin-3(2H)-yl]cyclohexyl}imidazo[1,2-a]pyridine-2-carboxamide trifluoroacetate salt]
0.00158 nM | O=C(N[C@H]1CC[C@@H](n2c(=O)c3cc(F)cnc3n(-c3cccc(-c4ccc(O)cc4CN4CCOCC4)c3)c2=O)CC1)c1cn2cc(F)ccc2n1 [Example 103, 6-fluoro-N-{cis-4-[6-fluoro-1-[4′-hydroxy-2′-(morpholin-4-ylmethyl)biphenyl-3-yl]-2,4-dioxo-1,4-dihydropyrido[2,3-d]pyrimidin-3(2H)-yl]cyclohexyl}imidazo[1,2-a]pyridine-2-carboxamide]
0.158 nM | O=c1c2cc(F)cnc2n(-c2cccc(-c3ccc(O)cc3CN3CCOCC3)c2)c(=O)n1[C@H]1CC[C@@H](NCc2cccn3ccnc23)CC1 [Example 373, 6-fluoro-1-[4′-hydroxy-2′-(morpholin-4-ylmethyl)biphenyl-3-yl]-3-{cis-4-[(imidazo[1,2-a]pyridin-8-ylmethyl)amino]cyclohexyl} pyrido[2,3-d]pyrimidine-2,4(1H,3H)-dione]
0.0126 nM | O=C(N[C@H]1CC[C@@H](n2c(=O)c3cc(F)cnc3n(-c3cccc(-c4ccc(CNC5CCNCC5)cc4)c3)c2=O)CC1)c1cn2cc(F)ccc2n1 [Example 268, 6-Fluoro-N-{cis-4-[6-fluoro-2,4-dioxo-1-{4′-[(piperidin-4-ylamino)methyl]biphenyl-3-yl}-1,4-dihydropyrido[2,3-d]pyrimidin-3(2H)-yl]cyclohexyl}imidazo[1,2-a]pyridine-2-carboxamide]
1.58 nM | COc1ccc(O)c(CN[C@H]2CC[C@@H](n3c(=O)c4cc(F)cnc4n(-c4cccc(-c5ccc(CN6CCCOCC6)cc5)c4)c3=O)CC2)c1 [Example 267, 6-fluoro-3-{cis-4-[(2-hydroxy-5-methoxybenzyl)amino]cyclohexyl}-1-[4′-(1,4-oxazepan-4-ylmethyl)biphenyl-3-yl]pyrido[2,3-d] pyrimidine-2,4(1H,3H)-dione]
0.0251 nM | Cc1cc(C(=O)N[C@H]2CC[C@@H](n3c(=O)c4cc(F)cnc4n(-c4cccc(-c5ccc(CN6CCC(N7CCCC7)CC6)cc5)c4)c3=O)CC2)nn1C [Example 118, N-{cis-4-[6-fluoro-2,4-dioxo-1-{4′-[(4-pyrrolidin-1-ylpiperidin-1-yl)methyl]biphenyl-3-yl}-1,4-dihydropyrido[2,3-d]pyrimidin-3(2H)-yl]cyclohexyl}-1,5-dimethyl-1H-pyrazole-3-carboxamide]
2 nM | COc1ccc(CN[C@H]2CC[C@@H](n3c(=O)c4cc(F)cnc4n(-c4cccc(-c5ccc(CN6CCCOCC6)cc5)c4)c3=O)CC2)cc1Cl [Example 258, 3-{cis-4-[(3-Chloro-4-methoxybenzyl)amino]cyclohexyl}-6-fluoro-1-[4′-(1,4-oxazepan-4-ylmethyl)biphenyl-3-yl]pyrido[2,3-d]pyrimidine-2,4(1H,3H)-dione]
0.0316 nM | O=C(N[C@H]1CC[C@@H](n2c(=O)c3cc(F)cnc3n(-c3cccc(-c4ccccc4)c3)c2=O)CC1)c1cn2ccccc2n1 [Example 3, N-[cis-4-(1-biphenyl-3-yl-6-fluoro-2,4-dioxo-1,4-dihydropyrido[2,3-d]pyrimidin-3(2H)-yl)cyclohexyl]imidazo[1,2-a]pyridine-2-carboxamide]
0.0631 nM | Cc1cccc(C(=O)N[C@H]2CC[C@@H](n3c(=O)c4cc(F)cnc4n(-c4cccc(-c5ccc(CN6CCCN(C)CC6)cc5)c4)c3=O)CC2)n1 [Example 308, N-{cis-4-[6-fluoro-1-{4′-[(4-methyl-1,4-diazepan-1-yl)methyl]biphenyl-3-yl}-2,4-dioxo-1,4-dihydropyrido[2,3-d]pyrimidin-3 (2H)-yl]cyclohexyl}-6-methylpyridine-2-carboxamide]
0.02 nM | O=C(N[C@H]1CC[C@@H](n2c(=O)c3cc(F)cnc3n(-c3cccc(-c4ccc(OCCN5CCCC5)cc4)c3)c2=O)CC1)c1cn2cc(F)ccc2n1 [Example 79, 6-fluoro-N-{cis-4-[6-fluoro-2,4-dioxo-1-[4′-(2-pyrrolidin-1-ylethoxy)biphenyl-3-yl]-1,4-dihydropyrido[2,3-d]pyrimidin-3(2H)-yl]cyclohexyl}imidazo[1,2-a]pyridine-2-carboxamide]
0.00631 nM | CN(C)C1(C(=O)N[C@H]2CC[C@@H](n3c(=O)c4cc(F)cnc4n(-c4cccc(-c5ccc(CN6CCOCC6)cc5)c4)c3=O)CC2)CC1 [Example 124, 1-(dimethylamino)-N-{cis-4-[6-fluoro-1-[4′-(morpholin-4-ylmethyl)biphenyl-3-yl]-2,4-dioxo-1,4-dihydropyrido[2,3-d]pyrimidin-3(2H)-yl]cyclohexyl}cyclopropane-carboxamide]
6.31 nM | O=c1c2cc(F)cnc2n(-c2cccc(-c3ccc(O)cc3CN3CCOCC3)c2)c(=O)n1[C@H]1CC[C@@H](NCC2CC2)CC1 [Example 249, 3-{cis-4-[(Cyclopropylmethyl)amino]cyclohexyl}-6-fluoro-1-[4′-hydroxy-2′-(morpholin-4-ylmethyl)biphenyl-3-yl]pyrido[2,3-d]pyrimidine-2,4(1H,3H)-dione]
1 nM | O=c1c2cc(F)cnc2n(-c2cccc(-c3ccc(O)cc3CN3CCOCC3)c2)c(=O)n1[C@H]1CC[C@@H](NCc2ccc(Cl)cc2)CC1 [Example 281, 3-{cis-4-{(4-chlorobenzyl)amino]cyclohexyl}-6-fluoro-1-[4′-hydroxy-2′-(morpholin-4-ylmethyl)biphenyl-3-yl]pyrido[2,3-d]pyrimidine-2,4(1H,3H)-dione]
0.00316 nM | O=C(N[C@H]1CC[C@@H](n2c(=O)c3cc(F)cnc3n(-c3cccc(-c4ccc(CN5CCSCC5)cc4)c3)c2=O)CC1)c1cn2c(n1)CCCC2 [Example 135, N-{cis-4-[6-fluoro-2,4-dioxo-1-[4′-(thiomorpholin-4-ylmethyl)biphenyl-3-yl]-1,4-dihydropyrido[2,3-d]pyrimidin-3(2H)-yl]cyclohexyl}-5,6,7,8-tetrahydroimidazo[1,2-a]pyridine-2-carboxamide]
2 nM | N[C@H]1CC[C@@H](n2c(=O)c3cc(F)cnc3n(-c3cccc(-c4ccccc4CN4CCOCC4)c3)c2=O)CC1 [Example 46, 3-(cis-4-aminocyclohexyl)-6-fluoro-1-[2′-(morpholin-4-ylmethyl)biphenyl-3-yl]pyrido[2,3-d]pyrimidine-2,4(1H,3H)-dione]
0.316 nM | CC(=O)N[C@H]1CC[C@@H](n2c(=O)c3cc(F)cnc3n(-c3cccc(-c4ccccc4CN4CCOCC4)c3)c2=O)CC1 [Example 62, N-{cis-4-[6-fluoro-1-[2′-(morpholin-4-ylmethyl)biphenyl-3-yl]-2,4-dioxo-1,4-dihydropyrido[2,3-d]pyrimidin-3(2H)-yl]cyclohexyl}acetamide]

Compound | IC50
C[N+](C)(C)Cc1ccc(-c2cccc(-n3c(=O)n([C@H]4CC[C@@H](NC(=O)c5cn6cc(F)ccc6n5)CC4)c(=O)c4cc(F)cnc43)c2)cc1 [Example 87, {3-[6-fluoro-3-(cis-4-{[(6-fluoroimidazo[1,2-a]pyridin-2-yl)carbonyl]amino}cyclohexyl)-2,4-dioxo-3,4-dihydropyrido[2,3-a]pyrimidin-1(2H)-yl]biphenyl-4-yl]-N,N,N-trimethylmethanaminium iodide] | 0.316 nM
